# Molecular target: IDO (Homo sapiens, UniProt P14902)
# Experiment: LLE_IDO_ABS_DR (IDO assay)
# Chain of IDO (P14902 whole entry): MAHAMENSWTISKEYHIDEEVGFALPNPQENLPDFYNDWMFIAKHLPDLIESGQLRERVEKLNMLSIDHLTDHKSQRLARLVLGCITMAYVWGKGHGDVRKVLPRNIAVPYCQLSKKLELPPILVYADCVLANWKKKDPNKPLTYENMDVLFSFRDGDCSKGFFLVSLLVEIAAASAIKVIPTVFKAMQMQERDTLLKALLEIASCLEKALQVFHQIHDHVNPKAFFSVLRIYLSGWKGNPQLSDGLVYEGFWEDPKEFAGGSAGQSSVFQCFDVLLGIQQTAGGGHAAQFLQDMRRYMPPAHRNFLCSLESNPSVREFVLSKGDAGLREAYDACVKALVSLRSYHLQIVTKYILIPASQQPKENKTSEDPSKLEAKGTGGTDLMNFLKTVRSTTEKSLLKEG
row,SMILES,IC50
1,"COc1ccc(C(=O)O)c(-c2ccc(N(CC(C)C)CC(C)C)c(NC(=O)Nc3ccc(C)cc3)c2)c1 [Example 128, 4′-(diisobutylamino)-5-methoxy-3′-(3-p-tolylureido)biphenyl-2-carboxylic acid]",390 nM
2,"Cc1ccc(NC(=O)Nc2cc(-c3sccc3C(=O)O)ccc2N(CCC2CC2)CC(C)C)cc1 [Example 131, 2-(4-((2-cyclopropylethyl) (isobutyl)amino)-3-(3-p-tolylureido)phenyl) thiophene-3-carboxylic acid]",50 nM
3,"Cc1ccc(NC(=O)Nc2cc(-c3ccccc3C(=O)O)ccc2N(CCC2CC2)CC(C)C)cc1 [Example 132, 4′-((2-cyclopropylethyl) (isobutyl)amino)-3′-(3-p-tolylureido) biphenyl-2-carboxylic acid]",50 nM
4,"CC(C)CN(CCC1CC1)c1ccc(-c2sccc2C(=O)O)cc1NC(=O)Nc1ccccc1F [Example 136, 2-(4-((2-cyclopropylethyl) (isobutyl)amino)-3-(3-(2-fluorophenyl)ureido)phenyl)thiophene-3-carboxylic acid]",70 nM
5,"CC(C)CN(CC(C)C)c1ccc(-c2ccccc2-c2nnn[nH]2)cc1NC(=O)NC1CC1 [Example 139, 1-cyclopropyl-3-(4-(diisobutylamino)-2′-(1H-tetrazol-5-yl)biphenyl-3-yl)urea]",1980 nM
6,"CC(C)CN(CC(C)C)c1ccc(-c2ccccc2-c2nnn[nH]2)cc1NC(=O)NC1CCCCC1 [Example 140, 1-cyclohexyl-3-(4-(diisobutylamino)-2′-(1H-tetrazol-5-yl)biphenyl-3-yl)urea]",2960 nM
7,"CC(C)CN(CC(C)C)c1ccc(-c2ccccc2-c2nnn[nH]2)cc1NC(=O)NCC(C)(C)C [Example 141, 1-(4-(diisobutylamino)-2′-(1H-tetrazol-5-yl)biphenyl-3-yl)-3-neopentylurea]",430 nM
8,"CC(C)CN(CC(C)C)c1ccc(-c2ccccc2-c2nnn[nH]2)cc1NC(=O)NCC1CC1 [Example 142, 1-(cyclopropylmethyl)-3-(4-(diisobutylamino)-2′-(1H-tetrazol-5-yl)biphenyl-3-yl)urea]",950 nM
9,"CC(C)CN(CC(C)C)c1ccc(-c2ccccc2-c2nnn[nH]2)cc1NC(=O)Nc1ccc2ncsc2c1 [Example 143, 1-(benzo[d]thiazol-6-yl)-3-(4-(diisobutylamino)-2′-(1H-tetrazol-5-yl)biphenyl-3-yl)urea]",150 nM
10,"CC(C)CN(CC(C)C)c1ccc(-c2ccccc2-c2nnn[nH]2)cc1NC(=O)Nc1nncs1 [Example 145, 1-(4-(diisobutylamino)-2′-(1H-tetrazol-5-yl)biphenyl-3-yl)-3-(1,3,4-thiadiazol-2-yl)urea]",80 nM
11,"Cc1ccc(NC(=O)Nc2cc(-c3cc(F)ccc3C(=O)O)ccc2N(CC(C)C)C(C)C)cc1 [Example 149, 5-fluoro-4′-(isobutyl(isopropyl)amino)-3′-(3-p-tolylureido)biphenyl-2-carboxylic acid]",60 nM
12,"Cc1ccc(NC(=O)Nc2cc(-c3cnccc3C(=O)O)ccc2N(CC(C)C)CC(C)C)cc1 [Example 151, 3-(4-(diisobutylamino)-3-(3-p-tolylureido)phenyl) isonicotinic acid]",4620 nM
13,"Cc1ccc(NC(=O)Nc2cc(-c3ccoc3C(=O)O)ccc2N(CC(C)C)CC(C)C)cc1 [Example 152, 3-(4-(diisobutylamino)-3-(3-p-tolylureido)phenyl)furan-2-carboxylic acid]",770 nM
14,"Cc1ccc(NC(=O)Nc2cc(-c3ccncc3C(=O)O)ccc2N(CC(C)C)CC(C)C)cc1 [Example 159, 4-(4-(diisobutylamino)-3-(3-p-tolylureido)phenyl) nicotinic acid]",980 nM
15,"COc1ccc(C(=O)O)c(-c2ccc(N(CC(C)C)CC(C)C)c(NC(=O)Nc3ccc(F)cc3F)c2)c1 [Example 160, 3′-(3-(2,4-difluorophenyl)ureido)-4′-(diisobutylamino)-5-methoxybiphenyl-2-carboxylic acid]",190 nM
16,"CC(C)CN(c1ccc(-c2ccccc2-c2nnn[nH]2)cc1NC(=O)Nc1ccccc1C(F)(F)F)C1CCCCC1 [Example 161, 1-(4-(cyclohexyl(isobutyl)amino)-2′-(1H-tetrazol-5-yl)biphenyl-3-yl)-3-(2-(trifluoromethyl)phenyl)urea]",240 nM

# Compounds with a lower IC50, results first:
row,IC50,SMILES
1,40 nM,"Cc1ccc(NC(=O)Nc2cc(-c3cc(F)ccc3C(=O)O)ccc2N(CCC2CC2)CC(C)C)cc1 [Example 130, 4′-((2-cyclopropylethyl) (isobutyl)amino)-5-fluoro-3′-(3-p-tolylureido) biphenyl-2-carboxylic acid]"
2,40 nM,"Cc1ccc(NC(=O)Nc2cc(-c3ccccc3C(=O)O)ccc2N(CC(C)C)C(C)C)cc1 [Example 148, 4′-(isobutyl(isopropyl)amino)-3′-(3-p-tolylureido)biphenyl-2-carboxylic acid]"
3,40 nM,"CC(C)CN(c1ccc(-c2cc(F)ccc2C(=O)O)cc1NC(=O)Nc1ccccc1F)C(C)C [Example 155, 5-fluoro-3′-(3-(2-fluorophenyl)ureido)-4′-(isobutyl(isopropyl)amino)biphenyl-2-carboxylic acid]"
4,30 nM,"CC(C)CN(CCC1CC1)c1ccc(-c2ccccc2C(=O)O)cc1NC(=O)Nc1ccccc1F [Example 134, 4′-((2-cyclopropylethyl) (isobutyl)amino)-3′-(3-(2-fluorophenyl)ureido)biphenyl-2-carboxylic acid]"
5,30 nM,"CC(C)CN(c1ccc(-c2ccccc2C(=O)O)cc1NC(=O)Nc1ccccc1F)C(C)C [Example 154, 3′-(3-(2-fluorophenyl)ureido)-4′-(isobutyl(isopropyl)amino)biphenyl-2-carboxylic acid]"
6,30 nM,"CC(C)CN(c1ccc(-c2cc(F)ccc2C(=O)O)cc1NC(=O)Nc1ccc(F)cc1F)C(C)C [Example 158, 3′-(3-(2,4-difluorophenyl)ureido)-5-fluoro-4′-(isobutyl(isopropyl)amino)biphenyl-2-carboxylic acid]"
7,20 nM,"CC(C)CN(c1ccc(-c2ccc(Cl)cc2C(=O)O)cc1NC(=O)Nc1ccccc1F)C1CCCCC1 [Example 123, 4-chloro-4′-(cyclohexyl(isobutyl)amino)-3′-(3-(2-fluorophenyl)ureido) biphenyl-2-carboxylic acid]"
8,20 nM,"CC(C)CN(CCC1CC1)c1ccc(-c2cc(F)ccc2C(=O)O)cc1NC(=O)Nc1ccccc1F [Example 135, 4′-((2-cyclopropylethyl) (isobutyl)amino)-5-fluoro-3′-(3-(2-fluorophenyl)ureido)biphenyl-2-carboxylic acid]"
9,20 nM,"CC(C)CN(c1ccc(-c2ccccc2C(=O)O)cc1NC(=O)Nc1ccc(F)cc1F)C(C)C [Example 157, 3′-(3-(2,4-difluorophenyl)ureido)-4′-(isobutyl(isopropyl)amino)biphenyl-2-carboxylic acid]"
10,10 nM,"COC(=O)c1cnc(NC(=O)Nc2cc(-c3ccccc3-c3nnn[nH]3)ccc2N(CC(C)C)CC(C)C)s1 [Example 144, methyl 2-(3-(4-(diisobutylamino)-2′-(1H-tetrazol-5-yl)biphenyl-3-yl)ureido)thiazole-5-carboxylate]"
11,10 nM,"CC(C)CN(CC(C)C)c1ccc(-c2cc(F)ccc2C(=O)O)cc1NC(=O)Nc1ccc(F)cc1F [Example 146, 3′-(3-(2,4-difluorophenyl)ureido)-4′-(diisobutylamino)-5-fluorobiphenyl-2-carboxylic acid]"
12,10 nM,"Cc1ccc(NC(=O)Nc2cc(-c3ccccc3-c3nnn[nH]3)ccc2N(CC(C)C)C(C)C)cc1 [Example 147, 1-(4-(isobutyl(isopropyl)amino)-2′-(1H-tetrazol-5-yl)biphenyl-3-yl)-3-p-tolylurea]"
13,9.53 nM,"Cc1ccc(NC(=O)Nc2cc(-c3ccccc3-c3nnn[nH]3)ccc2N(CCC2CC2)CC(C)C)cc1 [Example 129, 1-(4-((2-cyclopropylethyl) (isobutyl)amino)-2′-(1H-tetrazol-5-yl)biphenyl-3-yl)-3-p-tolylurea]"
14,7.45 nM,"CC(C)CN(c1ccc(-c2ccccc2-c2nnn[nH]2)cc1NC(=O)Nc1ccc(F)cc1F)C(C)C [Example 156, 1-(2,4-difluorophenyl)-3-(4-(isobutyl (isopropyl)amino)-2′-(1H-tetrazol-5-yl)biphenyl-3-yl)urea]"
15,6.45 nM,"CC(C)CN(CCC1CC1)c1ccc(-c2ccccc2-c2nnn[nH]2)cc1NC(=O)Nc1ccccc1F [Example 133, 1-(4-((2-cyclopropylethyl) (isobutyl)amino)-2′-(1H-tetrazol-5-yl)biphenyl-3-yl)-3-(2-fluorophenyl)urea]"
16,6.24 nM,"CC(C)CN(CC(C)C)c1ccc(-c2ccccc2C(=O)O)cc1NC(=O)Nc1ccc(F)cc1F [Example 138, 3′-(3-(2,4-difluorophenyl)ureido)-4′-(diisobutylamino) biphenyl-2-carboxylic acid]"
17,5.92 nM,"CC(C)CN(c1ccc(-c2cc(F)ccc2C(=O)O)cc1NC(=O)Nc1ccccc1F)C1CCCCC1 [Example 125, 4′-(cyclohexyl(isobutyl)amino)-5-fluoro-3′-(3-(2-fluorophenyl)ureido) biphenyl-2-carboxylic acid]"
18,5.24 nM,"CC(C)CN(CC(C)C)c1ccc(-c2ccccc2-c2nnn[nH]2)cc1NC(=O)Nc1ccc(F)cc1F [Example 137, 1-(2,4-difluorophenyl)-3-(4-(diisobutylamino)-2′-(1H-tetrazol-5-yl)biphenyl-3-yl)urea]"
19,5.18 nM,"Cc1ccc(NC(=O)Nc2cc(-c3cc(F)ccc3C(=O)O)ccc2N(CC(C)C)C2CCCCC2)cc1 [Example 124, 4′-(cyclohexyl(isobutyl)amino)-5-fluoro-3′-(3-p-tolylureido)biphenyl-2-carboxylic acid]"
20,5.16 nM,"CC(C)CN(c1ccc(-c2ccccc2-c2nnn[nH]2)cc1NC(=O)Nc1ccccc1F)C(C)C [Example 153, 1-(2-fluorophenyl)-3-(4-(isobutyl (isopropyl)amino)-2′-(1H-tetrazol-5-yl)biphenyl-3-yl)urea]"
21,3.47 nM,"CC(C)CN(c1ccc(-c2ccccc2C(=O)O)cc1NC(=O)Nc1ccccc1F)C1CCCCC1 [Example 122, 4′-(cyclohexyl(isobutyl)amino)-3′-(3-(2-fluorophenyl)ureido) biphenyl-2-carboxylic acid]"

# Source: patent publication US9758492B2, “IDO inhibitors” (Bristol-Myers Squibb Company, priority 2013, dated 2017)
